Laboratory results: article PMC9645344, “Serotonin-releasing agents with reduced off-target effects” (Molecular Psychiatry, 2022)

Columns and labels:
human SERT = target: T1, human SERT (Homo sapiens, UniProt P31645); experiment: [3H]5-HT release assay in HEK293 cells (superfusion); assay type: cell-based; settings: 10 µM, SERT-expressing HEK293 cells
T1 construct: expressed in transfected cells
Description: HEK293 cells stably expressing SERT were seeded onto PDL-coated glass coverslips (5 mm diameter) that were placed into 96-well plates at a density of 40,000 cells per well the day before the experiment. Cells were preloaded with [^3H]5-HT (0.4 µM, 20 min at 37 °C). Subsequently, the cells were transferred into small chambers with a total volume of 200 µl and superfused with KHB at a flow rate of 0.7 ml per min for 40 min to establish a stable baseline before the collection of 2-min fractions was initiated. For each experiment, three basal fractions were collected before the cells were exposed to various concentrations (given in the figure legends) of the test drugs for five fractions. Subsequently, the cells were superfused with 1% SDS for three final fractions that served to determine the total amount of radioactivity present within the cells at the end of each experimental run. The amount of tritium within each fraction was determined by liquid scintillation counting, and release was expressed as percentage of radioactivity released in relation to the total radioactivity present at the beginning of that fraction. Observations from superfusion experiments were excluded in case of premature exposure to SDS.

C57BL/6N mice = experiment: Forced-swim test (FST); assay type: in vivo; settings: for immobility time in the FST versus vehicle: mice
Description: (§1) All in vivo experiments were performed in adult mice (>6 weeks old). For the photometry and microdialysis experiments, which were carried out in Florida, male C57BL/6J mice from The Jackson Laboratory (Bar Harbor, ME, USA) were group-housed in polycarbonate cages (GM500, Tecniplast, Buguggiate, Italy) with lights on from 7 a.m. to 7 p.m. Food and water were provided ad libitum. Photometry and microdialysis experiments were performed in accordance with a protocol approved by the Institutional Animal Care and Use Committee at Florida Atlantic University. For the behavioral experiments, which were carried out in Vienna, C57BL/6N mice from Charles River (Sulzfeld, Germany) were group-housed in polycarbonate cages with lights on from 7 a.m. to 7 p.m. Food and water were provided ad libitum. Behavioral experiments were performed in accordance with a protocol approved by the Austrian national ethical committee on animal care and use (Bundesministerium für Wissenschaft und Forschung: BMWFW-66.009/0016-WF/V/3b/2015). All animal procedures were conducted in agreement with the ARRIVE guidelines and the U.K. Animal (Scientific Procedures) Act, 1986, and associated guidelines, EU Directive 2010/63/EU for animal experiments. Mice were given at least 1 week to acclimate before being used in any experiments.
For behavioral assays, animals were assigned to treatment groups and injected with test drugs by an unblinded observer.
The FST was performed as previously described. In brief, mice were placed for 6 min in a beaker (diameter: 19 cm, height: 23 cm), halfway filled with water (22–23 °C), and the immobility time was quantified using the software Videotrack (Viewpoint, Champagne au Mont d’Or, France). Immobility was defined as the absence of any movement, except for those required to keep the head above the water. The time spent immobile during the final 4 min of the test was used as a measure of behavioral despair. Animal sample size was confirmed using a post hoc analysis of the achieved power using G*Power3.1 [29]. Using a significance level (α) of 0.05 and an effect size f = 2.5 and a sample size of 6 animals/group we achieved the commonly accepted statistical power (1−β) of 0.8.

[1] = test system: extracellular 5-HT in the NAc; experiment: Fiber photometry with GRAB5-HT sensor in the NAc of freely moving mice; assay type: in vivo; settings: for relative GRAB5-HT fluorescence at peak versus saline: t = 700-900 s post injection, drug alone, D-FEN 10, S-4-MC 5, S-4-TFMMC 10 mg kg-1 intraperitoneal
Description: as §1
Mice were anesthetized with isoflurane (5% induction, 2% maintenance) and placed into a stereotaxic frame (Kopf Instruments, Tujunga, CA, USA) oriented in the flat skull position. Ophthalmic ointment was applied to prevent drying of the eyes. Ketoprofen (10 mg kg^−1) was administered subcutaneously (s.c.), whereas bupivacaine and lidocaine were administered locally (s.c.; 100 µl of sterile saline containing 0.05% bupivacaine and 0.2% lidocaine) to the surgical site atop the head. A midline incision was made through the skin on the dorsal surface of the head to expose the skull. Fascia was removed, coordinates for the NAc were determined relative to bregma: anterior/posterior = 1.54 mm; medial/lateral = 0.7 mm; dorsal/ventral = −4.1 mm. A 1 mm burr hole was drilled through the skull. […] For the mice used for fiber photometry, 4*10^12 genome copies of AAV9-hSyn-5-HT2h or 10^10 genome copies of AAV-hSyn-DA2m were delivered into the NAc at an infusion rate of 100 nl min^−1 (total volume of 1 µl) using a 34-gauge needle attached to a 10 µl Nanofil microsyringe (Hamilton, Reno, NV, USA), as previously described. Following injection of the virus, an optical fiber was lowered through the burr hole and secured with glass ionomer cement. Three 1.6 mm screws (00-96X1/16 39052, Plastics One Inc., Roanoke, VA, USA) were affixed to the skull to support a cement stage that was created to secure the implanted guide cannulae or optical fiber. Mice were singly housed following surgery and allowed 6 days of recovery for the microdialysis experiments or 21 days for the photometry experiments. Food and water were available ad libitum.
To monitor light emitted from the G-protein coupled receptor-activation-based 5-HT (GRAB5-HT) and DA (GRABDA) sensors, fiber photometry was performed as described. Briefly, a light emitting diode (465 nm) (CLED_465, Doric Lenses, Quebec, QC, Canada), reflected through a dichroic mirror, was coupled to an optical fiber (200 µm core/225 cladding diameter; Thorlabs, Newton, NJ, USA) that was glued to a metal ferrule (Doric Lenses, Quebec, QC, Canada) and implanted into the NAc as described above. Emitted, band-pass filtered light (500–550 nm, FMC6, Doric Lenses, Quebec,QC, Canada) was detected with a photodetector (Newport Femtowatt silicone PIN; New Focus, San Jose, CA, USA). Data were recorded using a RZ5P lock-in amplifier (Tucker-Davis Technologies, Alachua, FL, USA) controlled with Synapse software. Sinusoidal excitation was delivered at 210 Hz by an LED driver Doric Lenses, LEDD_4) at low power mode. A demodulated signal was low-pass filtered at 6 Hz and digitized at 1017 Hz. […]

[2] = test system: extracellular DA in the NAc; experiment: Fiber photometry with GRABDA sensor in the NAc; assay type: in vivo, mice
Description: All in vivo experiments were performed in adult mice (>6 weeks old). For the photometry and microdialysis experiments, which were carried out in Florida, male C57BL/6J mice from The Jackson Laboratory (Bar Harbor, ME, USA) were group-housed in polycarbonate cages (GM500, Tecniplast, Buguggiate, Italy) with lights on from 7 a.m. to 7 p.m. Food and water were provided ad libitum. Photometry and microdialysis experiments were performed in accordance with a protocol approved by the Institutional Animal Care and Use Committee at Florida Atlantic University. […]
Mice were anesthetized with isoflurane (5% induction, 2% maintenance) and placed into a stereotaxic frame (Kopf Instruments, Tujunga, CA, USA) oriented in the flat skull position. […] Fascia was removed, coordinates for the NAc were determined relative to bregma: anterior/posterior = 1.54 mm; medial/lateral = 0.7 mm; dorsal/ventral = −4.1 mm. […]
To monitor light emitted from the G-protein coupled receptor-activation-based 5-HT (GRAB5-HT) and DA (GRABDA) sensors, fiber photometry was performed as described. […] Emitted, band-pass filtered light (500–550 nm, FMC6, Doric Lenses, Quebec,QC, Canada) was detected with a photodetector (Newport Femtowatt silicone PIN; New Focus, San Jose, CA, USA). Data were recorded using a RZ5P lock-in amplifier (Tucker-Davis Technologies, Alachua, FL, USA) controlled with Synapse software. […]

T1 sequence (P31645 whole entry, the tested form may be a part): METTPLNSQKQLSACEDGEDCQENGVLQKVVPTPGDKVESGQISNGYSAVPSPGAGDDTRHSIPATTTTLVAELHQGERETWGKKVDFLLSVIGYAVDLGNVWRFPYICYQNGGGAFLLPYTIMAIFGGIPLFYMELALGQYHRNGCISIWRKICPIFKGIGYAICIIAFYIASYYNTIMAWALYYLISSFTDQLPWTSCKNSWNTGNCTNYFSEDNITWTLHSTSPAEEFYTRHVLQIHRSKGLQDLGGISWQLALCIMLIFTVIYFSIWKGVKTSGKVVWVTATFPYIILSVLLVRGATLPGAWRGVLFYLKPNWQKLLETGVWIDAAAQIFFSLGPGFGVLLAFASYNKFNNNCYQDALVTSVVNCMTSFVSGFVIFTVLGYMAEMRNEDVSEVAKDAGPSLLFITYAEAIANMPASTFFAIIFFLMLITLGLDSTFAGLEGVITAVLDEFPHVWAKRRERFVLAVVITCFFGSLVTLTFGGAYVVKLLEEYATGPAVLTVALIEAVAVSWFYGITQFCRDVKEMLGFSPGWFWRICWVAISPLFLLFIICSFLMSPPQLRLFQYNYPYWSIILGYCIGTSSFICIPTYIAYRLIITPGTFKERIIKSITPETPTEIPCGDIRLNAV

SMILES | effect on release of preloaded [3H]5-HT (human SERT) | immobility time in the FST versus vehicle (C57BL/6N mice; 1 mg kg-1 intraperitoneal) | time spent immobile in the FST, male and female mice (C57BL/6N mice; 5 mg kg-1 intraperitoneal) | immobility time in the FST versus vehicle (C57BL/6N mice; 5 mg kg-1 intraperitoneal) | immobility time in the FST versus vehicle (C57BL/6N mice; 10 mg kg-1 intraperitoneal) | extracellular 5-HT in the NAc (GRAB5-HT fluorescence) ([1]; 5 mg kg-1 intraperitoneal) | 5-HT sensor response on day 1 versus day 2 ([1]; 5 mg kg-1 intraperitoneal, two doses 24 h apart) | extracellular 5-HT in the NAc (GRAB5-HT fluorescence) with co-administered fluoxetine ([1]; 5 mg kg-1 plus fluoxetine 10 mg kg-1 intraperitoneal) | relative GRAB5-HT fluorescence at peak versus saline [1] | basal DA levels in the NAc (GRABDA fluorescence) ([2]; 5 mg kg-1 intraperitoneal) | time spent immobile in the FST, male and female mice (C57BL/6N mice; 10 mg kg-1 intraperitoneal) | extracellular 5-HT in the NAc (GRAB5-HT fluorescence) ([1]; 10 mg kg-1 intraperitoneal) | extracellular 5-HT in the NAc (GRAB5-HT fluorescence) with co-administered fluoxetine ([1]; 10 mg kg-1 plus fluoxetine 10 mg kg-1 intraperitoneal) | basal DA levels in the NAc (GRABDA fluorescence) ([2]; 10 mg kg-1 intraperitoneal)
Cc1ccc(C(=O)[C@H](C)N)cc1 [S-4-MC, 4-methylcathinone] | robustly increased | significantly reduced immobility time versus vehicle | significantly reduced the time spent immobile regardless of sex | significantly reduced immobility time versus vehicle | significantly reduced immobility time versus vehicle | elevated extracellular 5-HT in the NAc in a time-dependent manner | no significant difference | this effect could be prevented by fluoxetine | Significant effects | neither S-4-MC, nor S-4-TFMMC significantly elevated the basal DA levels | – | – | – | –
CN[C@@H](C)C(=O)c1ccc(C(F)(F)F)cc1 [S-4-TFMMC, 4-trifluoromethyl-N-methylcathinone] | robustly increased | – | – | – | significantly differed from the vehicle group | – | – | – | Significant effects | – | significantly reduced the time spent immobile regardless of sex | elevated extracellular 5-HT in the NAc in a time-dependent manner | this effect could be prevented by fluoxetine | neither S-4-MC, nor S-4-TFMMC significantly elevated the basal DA levels
